Converted amounts (≈) assume the structure as drawn.

The subject of the first assay is Pasteurella multocida PM 6267 (P 2225 (L386), reference strain, mouse infection strain). The experiment in a line: MIC, broth-microdilution (CLSI VET01-A4), strain PM 6267. In kind it is cell-based. The note with it: Pasteurella multocida strain PM 6267, broth-microdilution; unit assumed. As to the method: (§1) For example, representative compounds were tested against ***, Mannheimia haemolytica and Pasteurella multocida, using the conventional broth-dilution assay.
(§2) The Minimum inhibitory concentrations (MIC) of compounds according to the invention for a number of veterinary bacterial pathogens were determined by the broth-microdilution method according to CLSI document VET01-A4.
(§3) Microdilution trays containing a doubling dilution series of the test compound were used for the tests. The MIC results were interpreted according to the CLSI documents VET01-S3. The lowest concentration of compound at which no visible growth (i.e. no turbidity) detected by the unaided eye was recorded as the MIC.
(In broth dilution the organism is exposed to a series of concentrations in liquid medium.)
In turn, `COc1cc2c(cc1OC)CN(Cc1ccc(C#Cc3ccc(C(=O)N[C@@H](CO)C(=O)NO)cc3)cc1)CC2` [Compound 84] came in with an MIC PM 6267 of at most 0.1 µg/mL.

`O=C(N[C@@H](CO)C(=O)NO)c1ccc(C#Cc2ccc(CN3CCC(c4ccccc4)CC3)cc2)cc1` [Compound 80] registered an MIC PM 6267 of at most 0.1 µg/mL.

In turn, `C=CCNCc1cccc(C#Cc2ccc(C(=O)N[C@H](C(=O)NO)[C@@H](C)CC)cc2)c1` [Compound 49] showed an MIC PM 6267 of 3.1 µg/mL (≈ 7.39 µM).

Regarding `O=C(N[C@@H](CO)C(=O)NO)c1ccc(C#Cc2ccc(CNCc3ccccc3)cc2)cc1` [Compound 85], the MIC PM 6267 was at most 0.1 µg/mL.

In the next assay the test system is Mannheimia haemolytica MH 12587 (1071, BRD field isolate, macrolide-resistance: erm+, E+). Put plainly: MIC, broth-microdilution (CLSI VET01-A4), strain MH 12587. In kind it is cell-based. The settings on record: Mannheimia haemolytica strain MH 12587, broth-microdilution; unit assumed. How it is done:
as §1, §2, §3
For the compound `COc1cc2c(cc1OC)CN(Cc1ccc(C#Cc3ccc(C(=O)N[C@@H](CO)C(=O)NO)cc3)cc1)CC2` [Compound 84], the MIC MH 12587 is 3.1 µg/mL (≈ 5.85 µM).

`O=C(N[C@@H](CO)C(=O)NO)c1ccc(C#Cc2ccc(CN3CCC(c4ccccc4)CC3)cc2)cc1` [Compound 80]: the MIC MH 12587 turned out to be 3.1 µg/mL (≈ 6.23 µM).

`C=CCNCc1cccc(C#Cc2ccc(C(=O)N[C@H](C(=O)NO)[C@@H](C)CC)cc2)c1` [Compound 49]: the MIC MH 12587 was determined as 25 µg/mL (≈ 59.6 µM).

Consider `O=C(N[C@@H](CO)C(=O)NO)c1ccc(C#Cc2ccc(CNCc3ccccc3)cc2)cc1` [Compound 85], for which the MIC MH 12587 is 3.1 µg/mL (≈ 6.99 µM).

The subject of another assay is Pasteurella multocida PM 12080 (IV102277-0093, BRD field isolate). Put plainly: MIC, broth-microdilution (CLSI VET01-A4), strain PM 12080. Type of assay: cell-based. The settings on record: Pasteurella multocida strain PM 12080, broth-microdilution; unit assumed. As to the method: as §1, §2, §3
In turn, `COc1cc2c(cc1OC)CN(Cc1ccc(C#Cc3ccc(C(=O)N[C@@H](CO)C(=O)NO)cc3)cc1)CC2` [Compound 84] registered an MIC PM 12080 of 0.4 µg/mL (≈ 0.755 µM).

Regarding `O=C(N[C@@H](CO)C(=O)NO)c1ccc(C#Cc2ccc(CN3CCC(c4ccccc4)CC3)cc2)cc1` [Compound 80], the MIC PM 12080 stood at 0.8 µg/mL (≈ 1.61 µM).

On to `C=CCNCc1cccc(C#Cc2ccc(C(=O)N[C@H](C(=O)NO)[C@@H](C)CC)cc2)c1` [Compound 49], for which the MIC PM 12080 is 12.5 µg/mL (≈ 29.8 µM).

Consider `O=C(N[C@@H](CO)C(=O)NO)c1ccc(C#Cc2ccc(CNCc3ccccc3)cc2)cc1` [Compound 85], for which the MIC PM 12080 stood at 0.8 µg/mL (≈ 1.8 µM).

For the next assay, the system named is Mannheimia haemolytica MH 6374 (ATCC 33396, reference strain). The experiment in a line: MIC, broth-microdilution (CLSI VET01-A4), strain MH 6374. Type of assay: cell-based. The note with it: Mannheimia haemolytica strain MH 6374, broth-microdilution; unit assumed. How it is done:
as §1, §2, §3
With `COc1cc2c(cc1OC)CN(Cc1ccc(C#Cc3ccc(C(=O)N[C@@H](CO)C(=O)NO)cc3)cc1)CC2` [Compound 84], the MIC MH 6374 worked out at 3.1 µg/mL (≈ 5.85 µM).

`O=C(N[C@@H](CO)C(=O)NO)c1ccc(C#Cc2ccc(CN3CCC(c4ccccc4)CC3)cc2)cc1` [Compound 80]: the MIC MH 6374 was found to be 1.6 µg/mL (≈ 3.22 µM).

In turn, `C=CCNCc1cccc(C#Cc2ccc(C(=O)N[C@H](C(=O)NO)[C@@H](C)CC)cc2)c1` [Compound 49] returned an MIC MH 6374 of 12.5 µg/mL (≈ 29.8 µM).

In the case of `O=C(N[C@@H](CO)C(=O)NO)c1ccc(C#Cc2ccc(CNCc3ccccc3)cc2)cc1` [Compound 85], the MIC MH 6374 was found to be 0.8 µg/mL (≈ 1.8 µM).

A further assay has as its system Mannheimia haemolytica MH 13093 (XB0472-6014.1, BRD field isolate). The experiment in a line: MIC, broth-microdilution (CLSI VET01-A4), strain MH 13093. Type of assay: cell-based. The note with it: Mannheimia haemolytica strain MH 13093, broth-microdilution; unit assumed. How it is done:
as §1, §2, §3
In turn, `COc1cc2c(cc1OC)CN(Cc1ccc(C#Cc3ccc(C(=O)N[C@@H](CO)C(=O)NO)cc3)cc1)CC2` [Compound 84] returned an MIC MH 13093 of 3.1 µg/mL (≈ 5.85 µM).

As to `O=C(N[C@@H](CO)C(=O)NO)c1ccc(C#Cc2ccc(CN3CCC(c4ccccc4)CC3)cc2)cc1` [Compound 80], the MIC MH 13093 was found to be 6.3 µg/mL (≈ 12.7 µM).

In turn, `C=CCNCc1cccc(C#Cc2ccc(C(=O)N[C@H](C(=O)NO)[C@@H](C)CC)cc2)c1` [Compound 49] returned an MIC MH 13093 of 12.5 µg/mL (≈ 29.8 µM).

Take `O=C(N[C@@H](CO)C(=O)NO)c1ccc(C#Cc2ccc(CNCc3ccccc3)cc2)cc1` [Compound 85]: the MIC MH 13093 was found to be 3.1 µg/mL (≈ 6.99 µM).

The subject of the next assay is Mannheimia haemolytica MH 6357 (M7/2, reference strain, cattle infection strain). The experiment in a line: MIC, broth-microdilution (CLSI VET01-A4), strain MH 6357. In kind it is cell-based. The note with it: Mannheimia haemolytica strain MH 6357, broth-microdilution; unit assumed. How it is done:
as §1, §2, §3
For `COc1cc2c(cc1OC)CN(Cc1ccc(C#Cc3ccc(C(=O)N[C@@H](CO)C(=O)NO)cc3)cc1)CC2` [Compound 84], the MIC MH 6357 is 3.1 µg/mL (≈ 5.85 µM).

`O=C(N[C@@H](CO)C(=O)NO)c1ccc(C#Cc2ccc(CN3CCC(c4ccccc4)CC3)cc2)cc1` [Compound 80] displayed an MIC MH 6357 of 1.6 µg/mL (≈ 3.22 µM).

Compound `C=CCNCc1cccc(C#Cc2ccc(C(=O)N[C@H](C(=O)NO)[C@@H](C)CC)cc2)c1` [Compound 49] registered an MIC MH 6357 of 12.5 µg/mL (≈ 29.8 µM).

As to `O=C(N[C@@H](CO)C(=O)NO)c1ccc(C#Cc2ccc(CNCc3ccccc3)cc2)cc1` [Compound 85], the MIC MH 6357 came to 3.1 µg/mL (≈ 6.99 µM).

A further assay relates to Mannheimia haemolytica MH 10720 (154, BRD field isolate). The experiment in a line: MIC, broth-microdilution (CLSI VET01-A4), strain MH 10720. Type of assay: cell-based. The settings on record: Mannheimia haemolytica strain MH 10720, broth-microdilution; unit assumed. As to the method:
as §1, §2, §3
As to `COc1cc2c(cc1OC)CN(Cc1ccc(C#Cc3ccc(C(=O)N[C@@H](CO)C(=O)NO)cc3)cc1)CC2` [Compound 84], the MIC MH 10720 stood at 0.8 µg/mL (≈ 1.51 µM).

The compound `O=C(N[C@@H](CO)C(=O)NO)c1ccc(C#Cc2ccc(CN3CCC(c4ccccc4)CC3)cc2)cc1` [Compound 80] showed an MIC MH 10720 of 0.8 µg/mL (≈ 1.61 µM).

Turning to `C=CCNCc1cccc(C#Cc2ccc(C(=O)N[C@H](C(=O)NO)[C@@H](C)CC)cc2)c1` [Compound 49], the MIC MH 10720 is 6.3 µg/mL (≈ 15 µM).

`O=C(N[C@@H](CO)C(=O)NO)c1ccc(C#Cc2ccc(CNCc3ccccc3)cc2)cc1` [Compound 85] yielded an MIC MH 10720 of 1.6 µg/mL (≈ 3.61 µM).

In the next assay the test system is Mannheimia haemolytica MH 13065 (XB0446-6003.9, BRD field isolate). Put plainly: MIC, broth-microdilution (CLSI VET01-A4), strain MH 13065. Type of assay: cell-based. The settings on record: Mannheimia haemolytica strain MH 13065, broth-microdilution; unit assumed. How it is done: as §1, §2, §3
`COc1cc2c(cc1OC)CN(Cc1ccc(C#Cc3ccc(C(=O)N[C@@H](CO)C(=O)NO)cc3)cc1)CC2` [Compound 84] came in with an MIC MH 13065 of 3.1 µg/mL (≈ 5.85 µM).

For `O=C(N[C@@H](CO)C(=O)NO)c1ccc(C#Cc2ccc(CN3CCC(c4ccccc4)CC3)cc2)cc1` [Compound 80], the MIC MH 13065 was 1.6 µg/mL (≈ 3.22 µM).

In the case of `C=CCNCc1cccc(C#Cc2ccc(C(=O)N[C@H](C(=O)NO)[C@@H](C)CC)cc2)c1` [Compound 49], the MIC MH 13065 came to 12.5 µg/mL (≈ 29.8 µM).

`O=C(N[C@@H](CO)C(=O)NO)c1ccc(C#Cc2ccc(CNCc3ccccc3)cc2)cc1` [Compound 85] gave an MIC MH 13065 of 1.6 µg/mL (≈ 3.61 µM).

The next assay concerns Pasteurella multocida PM 10775 (080130003051, BRD field isolate). Put plainly: MIC, broth-microdilution (CLSI VET01-A4), strain PM 10775. The note with it: Pasteurella multocida strain PM 10775, broth-microdilution; unit assumed. In kind it is cell-based. How it is done: as §1, §2, §3
On to `COc1cc2c(cc1OC)CN(Cc1ccc(C#Cc3ccc(C(=O)N[C@@H](CO)C(=O)NO)cc3)cc1)CC2` [Compound 84], for which the MIC PM 10775 is at most 0.1 µg/mL.

`O=C(N[C@@H](CO)C(=O)NO)c1ccc(C#Cc2ccc(CN3CCC(c4ccccc4)CC3)cc2)cc1` [Compound 80] displayed an MIC PM 10775 of at most 0.1 µg/mL.

Turning to `C=CCNCc1cccc(C#Cc2ccc(C(=O)N[C@H](C(=O)NO)[C@@H](C)CC)cc2)c1` [Compound 49], the MIC PM 10775 was 0.8 µg/mL (≈ 1.91 µM).

Compound `O=C(N[C@@H](CO)C(=O)NO)c1ccc(C#Cc2ccc(CNCc3ccccc3)cc2)cc1` [Compound 85] showed an MIC PM 10775 of at most 0.1 µg/mL.

These data come from US11034650B2, “Compounds useful for treating a Mannheimia haemolytica or Histophilus somni infection” (Intervet Inc., priority 2016, dated 2021).
